Laboratory results as given in patent publication US20240124444A1 (Celgene Corporation, priority 2020, published 2024).
Like-named read-outs stand apart in the source and are kept apart here.

Tested on: C. parvum strain UGA1
Test: C. parvum growth inhibition assay (Nluc luminescence in HCT-8 cells)
Format: cell-based, Cryptosporidium parvum
Settings: Cryptosporidium parvum; for inhibition at 1 µM / inhibition at 10 µM: HCT-8; for inhibition at 1 µM: read-out: % inh @ 1 uM C. parvum; for inhibition at 10 µM: read-out: % inh @ 10 uM C. parvum; for EC50: HCT-8, 48 h, C. parvum growth inhibition in HCT-8 cells, 48 hours, 6 concentrations 10-0.04 μM
[1] = single point inhibition @ 10 uM
[2] = single point inhibition at 1 uM
[3] = single point inhibition at 10 uM

In the case of `COc1nccc(-c2cc3cnc(NC(=O)c4cnn(C5CCCC5)c4)cc3[nH]2)n1` [Example 183, 1-cyclopentyl-N-(2-(2-methoxypyrimidin-4-yl)-1H-pyrrolo[3,2-c]pyridin-6-yl)-1H-pyrazole-4-carboxamide], the inhibition at 1 µM (single point inhibition @ 1 uM) is reported as 0 to 33% and the inhibition at 10 µM [1] is reported as 67 to 100%.

In the case of `Cn1c(-c2ccnc(C(F)(F)F)n2)cc2cnc(NC3CCOCC3)cc21` [Example 396, 1-methyl-N-(tetrahydro-2H-pyran-4-yl)-2-(2-(trifluoromethyl)pyrimidin-4-yl)-1H-pyrrolo[3,2-c]pyridin-6-amine], the EC50 is reported as greater than 1 µM.

`Cc1nccc(-c2cc3cnc(NC(=O)c4cnn(C)c4)cc3[nH]2)n1` [Example 185, 1-methyl-N-(2-(2-methylpyrimidin-4-yl)-1H-pyrrolo[3,2-c]pyridin-6-yl)-1H-pyrazole-4-carboxamide] showed an inhibition at 1 µM (single point inhibition @ 1 uM) of 0 to 33% and an inhibition at 10 µM [1] of 67 to 100%.

`CC(C)n1cc(C(=O)Nc2cc3[nH]c(-c4ccnc(OCC(F)F)n4)cc3cn2)cn1` [Example 173, N-(2-(2-(2,2-difluoroethoxy)pyrimidin-4-yl)-1H-pyrrolo[3,2-c]pyridin-6-yl)-1-isopropyl-1H-pyrazole-4-carboxamide] gave an inhibition at 1 µM (single point inhibition @ 1 uM) of 0 to 33% and an inhibition at 10 µM [1] of 67 to 100%.

`Cn1cc(C(=O)Nc2cc3[nH]c(-c4ccnc(OCC5CCC5)n4)cc3cn2)cn1` [Example 313, N-(2-(2-(cyclobutylmethoxy)pyrimidin-4-yl)-1H-pyrrolo[3,2-c]pyridin-6-yl)-1-methyl-1H-pyrazole-4-carboxamide] gave an inhibition at 1 µM [2] of 0 to 33% and an inhibition at 10 µM [3] of 0 to 33%.

In the case of `c1nc(NC2CCOCC2)cc2[nH]c(C3CCCCC3)cc12` [Example 26, 2-Cyclohexyl-N-(tetrahydro-2H-pyran-4-yl)-1H-pyrrolo[3,2-c]pyridin-6-amine], the EC50 is reported as greater than 1 µM.

For `Cc1cc(-c2cc3cnc(NC(=O)CN4CCCC4)cc3n2C)ncn1` [Example 128, N-(1-methyl-2-(6-methylpyrimidin-4-yl)-1H-pyrrolo[3,2-c]pyridin-6-yl)-2-(pyrrolidin-1-yl)acetamide], the EC50 was greater than 1 µM.

`O[C@H]1CC[C@@H](Nc2cc3[nH]c(-c4cccnc4)cc3cn2)CC1` [Example 251, (1s,4s)-4-(2-(pyridin-3-yl)-1H-pyrrolo[3,2-c]pyridin-6-ylamino)cyclohexanol] was tested, and the inhibition at 1 µM [2] was 0 to 33% and the inhibition at 10 µM [3] was 0 to 33%.

In the case of `COc1nccc(-c2cc3cnc(NC(=O)C(C)(C)C)cc3[nH]2)n1` [Example 297, N-(2-(2-methoxypyrimidin-4-yl)-1H-pyrrolo[3,2-c]pyridin-6-yl)pivalamide], the inhibition at 1 µM [2] is reported as 0 to 33% and the inhibition at 10 µM [3] is reported as 0 to 33%.

Compound `COc1nccc(-c2cc3cnc(NC(=O)c4cccc5c4cnn5C)cc3[nH]2)n1` [Example 220, N-(2-(2-methoxypyrimidin-4-yl)-1H-pyrrolo[3,2-c]pyridin-6-yl)-1-methyl-1H-indazole-4-carboxamide] has an inhibition at 1 µM [2] of 0 to 33% and an inhibition at 10 µM [3] of 33 to 66%.

`COc1nccc(-c2cc3cnc(NC(=O)C4C5CCCC54)cc3[nH]2)n1` (stereo not drawn) [Example 176, N-(2-(2-methoxypyrimidin-4-yl)-1H-pyrrolo[3,2-c]pyridin-6-yl)bicyclo[3.1.0]hexane-6-carboxamide] gave an inhibition at 1 µM (single point inhibition @ 1 uM) of 0 to 33% and an inhibition at 10 µM [1] of 67 to 100%.

In the case of `Cn1cc(C(=O)Nc2cc3c(cn2)cc(-c2ccnc(NCCC(F)(F)F)n2)n3C)cn1` [Example 133, 1-methyl-N-(1-methyl-2-(2-(3,3,3-trifluoropropylamino)pyrimidin-4-yl)-1H-pyrrolo[3,2-c]pyridin-6-yl)-1H-pyrazole-4-carboxamide], the inhibition at 1 µM (single point inhibition @ 1 uM) is reported as 0 to 33% and the inhibition at 10 µM [1] is reported as 67 to 100%.

`CC(C)c1cc(-c2cc3cnc(NC4CCOCC4)cc3n2C)ncn1` [Example 395, 2-(6-isopropylpyrimidin-4-yl)-1-methyl-N-(tetrahydro-2H-pyran-4-yl)-1H-pyrrolo[3,2-c]pyridin-6-amine] was tested, and the EC50 was greater than 1 µM.

Compound `Cn1cnc(-c2cc3cnc(NC(=O)C4CC4)cc3[nH]2)n1` [Example 65, N-(2-(1-methyl-1H-1,2,4-triazol-3-yl)-1H-pyrrolo[3,2-c]pyridin-6-yl)cyclopropanecarboxamide] has an EC50 greater than 1 µM.

`COc1nccc(-c2cc3cnc(NC(=O)c4cnn(CC5CCCO5)c4)cc3[nH]2)n1` (stereo in doubt) [Example 231, (R)-N-(2-(2-methoxypyrimidin-4-yl)-1H-pyrrolo[3,2-c]pyridin-6-yl)-1-((tetrahydrofuran-2-yl)methyl)-1H-pyrazole-4-carboxamide] gave an inhibition at 1 µM [2] of 33 to 66% and an inhibition at 10 µM [3] of 33 to 66%.

`Cn1cc(C(=O)Nc2cc3[nH]c(-c4cc(C#N)ccn4)cc3cn2)cn1` [Example 300, N-(2-(4-cyanopyridin-2-yl)-1H-pyrrolo[3,2-c]pyridin-6-yl)-1-methyl-1H-pyrazole-4-carboxamide] showed an inhibition at 1 µM [2] of 0 to 33% and an inhibition at 10 µM [3] of 0 to 33%.

`O=C(CC1COC1)Nc1cc2[nH]c(-c3ccnc(C(F)(F)F)n3)cc2cn1` [Example 91, 2-(oxetan-3-yl)-N-(2-(2-(trifluoromethyl)pyrimidin-4-yl)-1H-pyrrolo[3,2-c]pyridin-6-yl)acetamide] was tested, and the EC50 was greater than 1 µM, the inhibition at 1 µM (single point inhibition @ 1 uM) was 0 to 33% and the inhibition at 10 µM [1] was 0 to 33%.

Compound `Cc1cc(-c2cc3cnc(NC4CCNCC4)cc3n2C)ncn1` [Example 120, 1-methyl-2-(6-methylpyrimidin-4-yl)-N-(piperidin-4-yl)-1H-pyrrolo[3,2-c]pyridin-6-amine] has an EC50 greater than 1 µM.

Work on `c1ncc(-c2cc3cnc(Nc4cnn(C5CCOCC5)c4)cc3[nH]2)o1` [Example 147, 2-(oxazol-5-yl)-N-(1-(tetrahydro-2H-pyran-4-yl)-1H-pyrazol-4-yl)-1H-pyrrolo[3,2-c]pyridin-6-amine] yielded an inhibition at 1 µM (single point inhibition @ 1 uM) of 0 to 33% and an inhibition at 10 µM [1] of 67 to 100%.

`Cc1cc(-c2cc3cnc(NC(=O)c4c(C)noc4C)cc3[nH]2)ccn1` [Example 221, 3,5-dimethyl-N-(2-(2-methylpyridin-4-yl)-1H-pyrrolo[3,2-c]pyridin-6-yl)isoxazole-4-carboxamide] was tested, and the inhibition at 1 µM [2] was 0 to 33% and the inhibition at 10 µM [3] was 33 to 66%.

For `O=C(Nc1cc2c(cn1)cc(C(F)(F)F)n2CCO)C1CC1` [Example 116, N-(1-(2-hydroxyethyl)-2-(trifluoromethyl)-1H-pyrrolo[3,2-c]pyridin-6-yl)cyclopropanecarobxamide], the EC50 was greater than 1 µM.

Compound `COc1cccc(Nc2cc3[nH]c(-c4cncn4C)cc3cn2)c1` [Example 204, N-(3-methoxyphenyl)-2-(1-methyl-1H-imidazol-5-yl)-1H-pyrrolo[3,2-c]pyridin-6-amine] has an inhibition at 1 µM [2] of 33 to 66% and an inhibition at 10 µM [3] of 67 to 100%.

With `COc1nccc(-c2cc3cnc(NC(=O)c4cnn(CC5CCOC5)c4)cc3[nH]2)n1` (stereo in doubt) [Example 184, (R)-N-(2-(2-methoxypyrimidin-4-yl)-1H-pyrrolo[3,2-c]pyridin-6-yl)-1-((tetrahydrofuran-3-yl)methyl)-1H-pyrazole-4-carboxamide] the inhibition at 1 µM (single point inhibition @ 1 uM) was 0 to 33% and the inhibition at 10 µM [1] was 67 to 100%.

Compound `O=C(Nc1cc2[nH]c(-c3ccnc(C(F)(F)F)n3)cc2cn1)C1C2CCCC21` (stereo not drawn) [Example 199, N-(2-(2-(trifluoromethyl)pyrimidin-4-yl)-1H-pyrrolo[3,2-c]pyridin-6-yl)bicyclo[3.1.0]hexane-6-carboxamide] has an inhibition at 1 µM [2] of 0 to 33% and an inhibition at 10 µM [3] of 67 to 100%.

In the case of `Cn1cnc(-c2cc3cnc(NC(=O)C4CC4)cc3n2C)n1` [Example 57, N-(1-methyl-2-(1-methyl-1H-1,2,4-triazol-3-yl)-1H-pyrrolo[3,2-c]pyridin-6-yl)cyclopropanecarboxamide], the EC50 is reported as greater than 1 µM.

`O=C(Nc1cc2[nH]c(-c3cnc(C4CC4)o3)cc2cn1)C1CC1` [Example 61, N-(2-(2-cyclopropyloxazol-5-yl)-1H-pyrrolo[3,2-c]pyridin-6-yl)cyclopropanecarboxamide] showed an EC50 greater than 1 µM.

`Cc1cc(-c2cc3cnc(NC(=O)c4cccc5c4cnn5C)cc3[nH]2)ccn1` [Example 288, 1-methyl-N-(2-(2-methylpyridin-4-yl)-1H-pyrrolo[3,2-c]pyridin-6-yl)-1H-indazole-4-carboxamide] gave an inhibition at 1 µM [2] of 0 to 33% and an inhibition at 10 µM [3] of 0 to 33%.

For `CC(C)n1cc(C(=O)Nc2cc3c(cn2)cc(-c2ccnc(NCCC(F)(F)F)n2)n3C)cn1` [Example 178, 1-isopropyl-N-(1-methyl-2-(2-(3,3,3-trifluoropropylamino)pyrimidin-4-yl)-1H-pyrrolo[3,2-c]pyridin-6-yl)-1H-pyrazole-4-carboxamide], the inhibition at 1 µM (single point inhibition @ 1 uM) was 0 to 33% and the inhibition at 10 µM [1] was 67 to 100%.

`Cn1cc(C(=O)Nc2cc3[nH]c(C#N)cc3cn2)cn1` [Example 280, N-(2-cyano-1H-pyrrolo[3,2-c]pyridin-6-yl)-1-methyl-1H-pyrazole-4-carboxamide] was tested, and the inhibition at 1 µM [2] was 0 to 33% and the inhibition at 10 µM [3] was 0 to 33%.

With `Cc1cc(-c2[nH]c3cc(NC4CCCCC4)ncc3c2C)ccn1` [Example 369, N-cyclohexyl-3-methyl-2-(2-methylpyridin-4-yl)-1H-pyrrolo[3,2-c]pyridin-6-amine] the EC50 was greater than 1 µM.

Compound `Cc1cc(-c2cc3cnc(NC(=O)CN(C)C)cc3n2C)ncn1` [Example 127, 2-(dimethylamino)-N-(1-methyl-2-(6-methylpyrimidin-4-yl)-1H-pyrrolo[3,2-c]pyridin-6-yl)acetamide] has an EC50 greater than 1 µM.

`Cn1c(-c2ccnc(NCC(F)(F)F)n2)cc2cnc(NC(C)(C)C)cc21` [Example 384, N-tert-butyl-1-methyl-2-(2-(2,2,2-trifluoroethylamino)pyrimidin-4-yl)-1H-pyrrolo[3,2-c]pyridin-6-amine] was tested, and the EC50 was greater than 1 µM.

In the case of `Cn1cncc1-c1cc2cnc(Nc3ccc(F)cc3)cc2[nH]1` [Example 229, N-(4-fluorophenyl)-2-(1-methyl-1H-imidazol-5-yl)-1H-pyrrolo[3,2-c]pyridin-6-amine], the inhibition at 1 µM [2] is reported as 33 to 66% and the inhibition at 10 µM [3] is reported as 33 to 66%.

Work on `CN(C(=O)c1cnn(C)c1)c1cc2[nH]c(-c3ccnc(NCC(F)(F)F)n3)cc2cn1` [Example 257, N,1-dimethyl-N-(2-(2-(2,2,2-trifluoroethylamino)pyrimidin-4-yl)-1H-pyrrolo[3,2-c]pyridin-6-yl)-1H-pyrazole-4-carboxamide] yielded an inhibition at 1 µM [2] of 0 to 33% and an inhibition at 10 µM [3] of 0 to 33%.
